“Also recorded” adds a separate entry of the source. *1 amine or outer side, *2 acyl side, *3 side chain or, on linkers, in order; H or OH if unused. Where a SMILES comes first, the peptide text is derived from it. Where no end group is shown, it is not given here. [ ]: non-standard residue; d: D form. ξ: configuration not given here. X1 = O=C(C1C[C@H](O)CN1[*:1])[*:2]; Hyp = O=C(O)[C@@H]1C[C@@H](O)CN1; ξY = NC(Cc1ccc(O)cc1)C(=O)O; ξP = O=C(O)C1CCCN1; ξA = CC(N)C(=O)O
Key:
[1] = cited from earlier work
myocardial gap junctions = test: Fluorescence microscopy of frozen tissue sections after tail vein injection of the probe; type: in vivo; conditions: 1 h after tail vein injection
Text: Meanwhile, frozen sections of tissue were further prepared and imaged under a fluorescence microscope. By using muscle as a control (FIGS. 3-a, 3-b, and 3-c), the distribution profile of the probe Cy5.5-Cx43SP in heart was observed under a fluorescence microscope.

[2] = Biological distribution of Cy5.5-Cx43SP in normal mice, ex vivo near-infrared fluorescent imaging of main organs; conditions: mouse
Protocol: 1 hour after injection of Cy5.5-Cx43SP, the mice were sacrificed, and their organs were taken out to perform ex vivo near-infrared fluorescent imaging of main organs. […] Especially, the relatively high uptake by heart is highly consistent with the fact that normal heart express relatively high Cx43 (FIG. 6).

HeLa tumor = test: Optical tumor imaging of nude mice bearing tumor, control xenograft; type: in vivo, nude mouse; conditions: near-infrared fluorescent imaging, 1 h after tail vein injection
Protocol: (§1) HeLa-Cx43 cells overexpressing Cx43 were used to establish a subcutaneous xenograft model in nude mouse (FIG. 9, left), and the conventional subcutaneous xenograft model of HeLa cells without transfection of Cx43 were used as control group (FIG. 9, right). In vivo Cy5.5-Cx43SP1 near-infrared fluorescent imaging of tumor was carried out.

HeLa-Control cells [3] = test: Cy5.5-Cx43SP1 cells binding and blocking experiment, control cells; type: cell-based; conditions: for binding / uptake of probe by control HeLa cells: Cy5.5-Cx43SP1 500 nmol/L, HeLa without Cx43 transfection
Text: (§2) 1) Establishment of a Cx43 highly expressing cell line: Cervical cancer HeLa cells were transfected by Cx43 gene, and cervical cancer tumor cell lines HeLa-Cx43 overexpressing Cx43 was successfully prepared. Non-transgenic HeLa cells (without C43 expression) were used as control.
(§3) 2) Cy5.5-Cx43SP1 cells binding and blocking experiment: HeLa-Cx43 cells and the control group HeLa-Control cells were applied onto a 12-well plate in an amount of 0.5×10^6/well one day prior to experiment, and were classified into four groups: Group A: HeLa-Cx43 cells group, Group B: HeLa-Control cells group, Group C: HeLa-Cx43 cells blocking group, Group D: HeLa-Control cells blocking group. Each group comprises 3 wells and the experiment was repeated for 3 times. Into each well was added Cy5.5-Cx43SP1 with a concentration of 500 nmol/L and an amount of 1 ml. Unlabeled Cx43SP1 was added into blocking groups with a concentration of 5 μmol/L.

HeLa-Cx43 cells [4] = test: Cy5.5-Cx43SP1 cells binding and blocking experiment; type: cell-based; conditions: for binding / uptake of probe by HeLa-Cx43 cells: Cy5.5-Cx43SP1 500 nmol/L, fluorescence microscopy
Text: as §2, §3

[5] = tested on: HeLa-Cx43 tumor overexpressing Cx43; test: Optical tumor imaging of nude mice bearing tumor; type: in vivo, nude mouse; conditions: near-infrared fluorescent imaging, 1 h after tail vein injection
Protocol: as §1

HeLa-Control cells [6] = test: ^64Cu-NODA-Cx43SP1 cells binding and blocking experiment, control cells; type: cell-based; conditions: 3.2 μCi/well, HeLa without Cx43 transfection
Text: as §2
(§4) HeLa-Cx43 cells and control group HeLa-Control cells were applied onto a 12-well plate in an amount of 0.5×10^6/well one day prior to experiment, and were classified into four groups: Group A: HeLa-Cx43 cells group, Group B: HeLa-Control cells group, Group C: HeLa-Cx43 cells blocking group, Group D: HeLa-Control cells blocking group. Each group comprises 3 wells, and the experiment was repeated for 3 times. Into each well was added ^64Cu-NODA-Cx43SP1 with a concentration of 3.2 μCi/well and an amount of 1 ml. Unlabeled NODA-Cx43SP1 was added into the blocking groups with a concentration of 50 μg/well (10 times of ^64Cu-NODA-Cx43SP1).

HeLa-Cx43 cells [7] = test: ^64Cu-NODA-Cx43SP1 cells binding and blocking experiment; type: cell-based
Text: as §2, §4

For `CC(NC(=O)CN)C(=O)NCC(=O)N1C[C@@H](O)CC1C(=O)N1CCCC1C(=O)NC(Cc1ccc(O)cc1)C(N)=O` (stereo partly drawn) [AAP10, Gly-Ala-Pro-Gly-4 Hyp-Pro-Tyr] (H-G[ξA]G[X1][ξP][ξY]-NH2), the stability in plasma [1] is given as “not stable in plasma”.

In the case of “Cy5.5-Cx43SP1: Cx43SP1 labeled with near-infrared fluorescent dye Cy5.5 via Cy5.5-NHS (GAPG[Hyp]PY; also: Cy5.5 coupled via Cy5.5-NHS, site not given here)”, the “gathering of probe in muscular tissue (control)” value (myocardial gap junctions; frozen section of muscle) is reported as “not gathered in the muscular tissue”, the “gathering of probe in myocardial tissue” value (myocardial gap junctions; frozen section of myocardium) is reported as “gathered in the myocardial tissue in large amount” and the “location of probe within myocardium” value (myocardial gap junctions; frozen section of myocardium) is reported as “mainly distributed at the location of gap junctions between myocardial cells”. For the same compound, the excretion route ([2]; 1 h after injection) was “mainly excreted through liver and intestinal tract, and partly through kidney and urinary system; also recorded: mostly excreted via liver and intestinal tract”, the “organ distribution of probe” value ([2]; 1 h after tail vein injection, ex vivo organs) was “mainly distributed in heart, liver, gastrointestinal tract; also recorded: significantly gathered in the heart, stomach, liver, gall bladder and intestinal tract” and the “gathering of probe at control HeLa tumor” value (HeLa tumor) was “no obvious gather; also recorded: not concentrated at the HeLa tumor site”. For the same compound, the “binding / uptake of probe by control HeLa cells” value (HeLa-Control cells [3]) was “no binding”, the “binding / uptake of probe by control HeLa cells” value (HeLa-Control cells [3]; listed as Cy5.5-Cx43SP) was “not uptaken” and the “uptake by control HeLa cells after blocking” value (HeLa-Control cells [3]; blocking with excess unlabeled Cx43SP) was “still do not uptake”. For the same compound, the “binding / uptake of probe by HeLa-Cx43 cells” value (HeLa-Cx43 cells [4]) was “significant specific binding”, the “binding / uptake of probe by HeLa-Cx43 cells” value (HeLa-Cx43 cells [4]; listed as Cy5.5-Cx43SP) was “uptake a large amount” and the “binding / uptake by HeLa-Cx43 cells after blocking” value (HeLa-Cx43 cells [4]; blocking with excess unlabeled Cx43SP 5 μmol/L) was “substantially reduced; also recorded: decreases significantly”. The “gathering of probe at HeLa-Cx43 tumor” value [5] was “gathered in the location of HeLa-Cx43 tumor overexpressing Cx43 in high concentration; also recorded: gathered at tumor site of HeLa-Cx43 overexpressing Cx43 in large amount”.

In the case of “^64Cu-NODA-Cx43SP1: NODA-modified Cx43SP1 labeled with ^64Cu, PET probe (GAPG[Hyp]PY; also: NODA chelator carrying 64Cu, site not given here)”, the “binding of probe to control HeLa cells” value (HeLa-Control cells [6]) is reported as “no binding”, the “binding of probe to HeLa-Cx43 cells” value (HeLa-Cx43 cells [7]; 3.2 μCi/well) is reported as “significant specific binding” and the “binding to HeLa-Cx43 in the blocking experiment” value (HeLa-Cx43 cells [7]; unlabeled NODA-Cx43SP1 50 μg/well) is reported as “substantially reduced”.

From patent publication US9764048B2, “Targeted molecular imaging probe and method for in vivo molecular imaging” (priority 2012, dated 2017)
